Source: patent US20050119284A1, “ANTIVIRAL AGENTS AND METHODS OF USE” (priority 2003, published 2005)
Where “and” joins values, the source holds several entries; their conditions need not be identical. Equal entries are not always repeated. Entries after “also recorded” stand apart in the source; their conditions may differ.

Legend:
MDBK cells [1] = system: MDBK cells
[2] = system: bovine viral diarrhea virus (BVDV); assay: BVDV plaque assay in MDBK cells; assay type: cell-based; conditions: for Antiviral effect on BVDV in the presence of thymidine (in words): 1 mM thymidine, cytotoxicity blocked; for Effect on viral yield: MDBK cells with BVDV, without thymidine; for Antiviral effect on BVDV replication (in words): increasing concentrations; for Decrease in BVDV replication / viral titers: in the presence of 1 mM thymidine; for Pfu/microL Avg: average of three; for Pfu/microL: individual replicates
HCV 1 bN replicon [3] = conditions: 100 uM, 1 mM thymidine, 72 hours, Huh7
MDBK cells [4] = assay: Host cell growth / cytotoxicity, mock-infected MDBK cells counted by flow cytometry; conditions: for Decrease in cell growth: confluent MDBK cells, concentrations used for the AZA/MPA comparison; for Cellular cytotoxicity / cell viability at antiviral concentrations: MDBK cells, concentrations assayed
[5] = given to mice; cited from earlier work
HCV 1 bN replicon [6] = conditions: two recent studies; cited from earlier work

With `Sc1ncnc2nc[nH]c12` [6-mercaptopurine] the “Effect on cell growth” value (MDBK cells [1]) was “decreased”, the “Effect on cell growth in the presence of thymidine” value (MDBK cells [1]) was “neither azathioprine metabolite had an appreciable effect” and the “Antiviral effect on BVDV in the presence of thymidine (in words)” value (“Antiviral effect on BVDV in the presence” below) [2] was “significantly reduced; also recorded: still possessed this antiviral effect”. For the same compound, the “Effect on viral yield” value [2] was “decreased”, the “Antiviral effect on BVDV replication (in words)” value ([2]; MDBK cells, listed as 6MP) was “sensitive; also recorded: specifically inhibited” and the “Decrease in BVDV replication / viral titers” value [2] was 2 log.

For `CSc1ncnc2nc[nH]c12` [6-methyl mercaptopurine], the “Effect on cell growth” value (MDBK cells [1]) was “no effect” and the “Effect on viral yield” value [2] was “no effect”.

With `Nc1nc2nc[nH]c2c(=S)[nH]1` [6-thioguanine] the “Effect on cell growth” value (MDBK cells [1]) was “decreased”, the “Effect on cell growth in the presence of thymidine” value (MDBK cells [1]) was “neither azathioprine metabolite had an appreciable effect” and the “Antiviral effect on BVDV in the presence” value [2] was “did not”. For the same compound, the “Effect on viral yield” value [2] was “decreased”, the “Antiviral effect on BVDV replication (in words)” value ([2]; MDBK cells) was “no antiviral affect” and the “Decrease in BVDV replication / viral titers” value [2] was “did not”.

For `OC[C@H]1O[C@@H](n2cnc3c(S)ncnc32)[C@H](O)[C@@H]1O` [6TI, 6 thioinosine], the “Antiviral properties relative to 6MP” value ([2]; BVDV replication, FIG. 11) was 2-3 fold.

For `Cn1cnc([N+](=O)[O-])c1Sc1ncnc2nc[nH]c12` [AZA, azathioprine], the “Amount of replicon compared to no drug” value (HCV 1 bN replicon [3]) was about 50%, the “Increase in number of cycles to reach critical threshold (Ct) compared to no drug” value (HCV 1 bN replicon [3]) was about 1 cycle and the “Decrease in cell growth” value (MDBK cells [4]) was about 50%. The “Antiviral effect on BVDV in the presence” value [2] was “the majority of the antiviral effect was maintained; also recorded: still occurred”, the “Inhibition of viral replication relative to inhibition of cell growth” value ([2]; MDBK cells, increasing AZA, 72 hours) was 10-100 fold and the “Antiviral effect on BVDV replication (in words)” value ([2]; MDBK cells) was “sensitive; also recorded: specifically inhibited”. For the same compound, the “Decrease of BVDV replication relative to MPA” value ([2]; at doses that achieved similar cytoxicity) was 10 fold, the “Virus produced per living cell, compared to cells grown in MPA” value ([2]; confluent MDBK cells, concentrations causing similar decrease in cell growth) was 12% and the “Amount of BVDV virus generated, AZA versus MPA” value ([2]; confluent MDBK cells, doses allowing similar cellular growth, 72 hours) was “significantly less”. For the same compound, the “Decrease in BVDV replication / viral titers” value [2] was “two”.

In the case of `COc1c(C)c2c(c(O)c1C/C=C(\C)CCC(=O)O)C(=O)OC2` [MPA, mycophenolate], the “Effect on cell growth” value (MDBK cells [1]) is reported as “killed all the cells” and the “Decrease in cell growth” value (MDBK cells [4]) is reported as about 50%.

With `CC(=O)/C=C\Sc1ncnc2[nH]cnc12` [cis-AVTP, cis-6-(2-acetylvinylthio) purine] the “Cellular cytotoxicity / cell viability at antiviral concentrations” value (MDBK cells [4]) was “without cellular cytoxicity”, the “Cellular cytotoxicity / cell viability at antiviral concentrations” value (MDBK cells [4]; listed as cisAVTP) was “did not affect overall cell viability” and the “Antiviral effect on BVDV in the presence” value [2] was “still occurs”. The “Pfu/microL Avg” value ([2]; 10 microM) was 2 Pfu/microL, the Pfu/microL ([2]; 10 microM, listed as cis) was 1.4 Pfu/microL and 2.5 Pfu/microL and 2.1 Pfu/microL and the “Pfu/microL Avg” value ([2]; 100 microM) was 0.35 Pfu/microL. For the same compound, the Pfu/microL ([2]; 100 microM, listed as cis) was 0.34 Pfu/microL and 0.35 Pfu/microL and 0.36 Pfu/microL, the “Antiviral effect on BVDV replication (in words)” value ([2]; MDBK cells) was “sensitive; also recorded: significant anti-viral activity” and the “Antiviral effect on BVDV replication (in words)” value ([2]; MDBK cells, listed as cisAVTP) was “able to inhibit”. The “Levels of 6MP in the liver and gastrointestinal tract” value [5] was “high levels” and the Side effects [5] was “no significant side effects”.

For `NC(=O)c1ncn([C@@H]2O[C@H](CO)[C@@H](O)[C@H]2O)n1` [ribavirin], the “Antiviral (Hepatitis GB) or anti-HCV replicon activity” value (HCV 1 bN replicon [6]) is given as “weak”.

In the case of `CC(=O)/C=C/Sc1ncnc2[nH]cnc12` [trans-AVTP, trans-6-(2-acetylvinylthio) purine], the “Antiviral activity compared between isomers” value ([2]; 10 uM) is reported as “less antiviral than cis-AVTP”, the “Pfu/microL Avg” value ([2]; 10 microM) is reported as 65.67 Pfu/microL and the Pfu/microL ([2]; 10 microM) is reported as 53 Pfu/microL and 73 Pfu/microL and 71 Pfu/microL. The “Pfu/microL Avg” value ([2]; 100 microM) was 0.33 Pfu/microL and the Pfu/microL ([2]; 100 microM) was 0.32 Pfu/microL and 0.38 Pfu/microL and 0.29 Pfu/microL.
